Results taken from paper PMC2206373, “Identification of an altered peptide ligand based on the endogenously presented, rheumatoid arthritis-associated, human cartilage glycoprotein-39(263–275) epitope: an MHC anchor variant peptide for immune modulation” (Arthritis Research & Therapy, 2007).
Read-outs that look alike come from different tables or passages of the source. No end group written: not given here.

Legend:
[1] = target: HLA-DR4(B1*0401) (Homo sapiens, UniProt P01903+P01911, A100K/A169T/F76Y/I96L/K127E/L162R/M171V/N62H/P40V/Q125Y/R42H/S133A/S149N/S66Y/V115G/V209L/W38E); assay: HLA-DR4 competition peptide binding assay; conditions: competition with biotinylated HA307-319 (Y309F) 50 nM, purified HLA-DR4 30 nM, pH 5, 48 h, room temperature
Description: HLA-DR bound marker peptide was separated from free marker peptide and the amount of bound marker peptide was detected and quantified by enhanced chemoluminescense. Inhibition curves were generated and the IC50 was determined. The concentration of competitor peptide inducing 50% inhibition of marker peptide binding was determined, and expressed as the 50% inhibitory concentration (IC50 in μM).

[2] = test system: T cell hybridoma 5G11; assay: T hybridoma 5G11 IL-2 response; type: cell-based, mouse; conditions: for Hybridoma response (SI) 5G11: IL-2 by ELISA after 48 h, peptide 10 μg/ml, SI > 2 positive
Description: (§1) The T cell hybridomas, provided by G Sonderstrup (Stanford, CA, USA), were generated as described. In brief, human CD4, HLA-DRA*101/HLA-DRB*0401 triple transgenic (HLA-DR4trg) mice (devoid of I-Aβ) were immunized in the footpad with 50 μg of purified HC gp-39 mixed in incomplete Freund's adjuvant (IFA). Draining lymph nodes were isolated and T-cell hybridomas were generated by polyethylene glycol fusion of primed and in vitro antigen-restimulated lymph node cells with the AKR BW5147 fusion partner. Following fusion, growth-positive hybridoma wells were screened for reactivity to HC gp-39 and a set of 55 peptides (16 amino acids in length) covering the entire HC gp-39 sequence. HLA-DR4(B1*0401)-restricted hybridomas responsive to both the HC gp-39 protein and the immunodominant epitope 263–275 of HC gp-39 (for example, 5G11, 8B12, 14G11 and 20H5) were cloned, subcloned, characterised and selected for further study.
(§2) HC gp-39-specific IL-2 production by T hybridomas was measured in wells of round-bottomed microtiter plates. Hybridoma cells (2 to 5 × 10^4) and irradiated APC (0.5 to 1 × 10^5; 12,000 to 16,000 RAD) from the B lymphoblastoid cell line (BLCL) carrying the DRB1*0401 specificity were incubated in 150 μl volumes. Antigen was added in 50 μl volumes to duplicate wells. After 48 h, 100 μl of the culture supernatant was assayed for IL-2 production using a sandwich ELISA with Pharmingen antibodies specific for mouse IL-2. The antigen sensitivity of the hybridomas to both peptide and protein was determined (Figure 2). […] In later assays, an excess of peptide or APL (10 μg/ml), inducing maximal responses in all hybridomas, was tested.

[3] = test system: T cell hybridoma 20H5; assay: T hybridoma 20H5 IL-2 response; type: cell-based, mouse; conditions: for Hybridoma response (SI) 20H5: IL-2 by ELISA after 48 h, peptide 10 μg/ml, DRB1*0401 BLCL as APC, SI > 2 positive
Description: as §1, §2

[4] = test system: popliteal lymph node cells from HC gp-39(263–275)-immunized huCD4, HLA-DR4 transgenic mice; assay: Antigen-specific proliferation of popliteal lymph node cells from WT peptide-immunized mice; type: cell-based, mouse; conditions: 96 h, tritiated thymidine, background 407 cpm, SI > 2 positive, SD not above 30%
Description: (§3) Mice, obtained from L Fugger (Oxford, UK), were immunized in the hind footpads with 2 × 50 μg of purified recombinant HC gp-39, with 2 × 100 μg of the WT peptide or with 2 × 100 μg of the APL (F265(Dip); compound 28; Figure 1) mixed in IFA. Seven days later, popliteal lymph node cell suspensions (1 to 2 × 10^5 cells/well) were stimulated in vitro with HC gp-39 (50, 10 or 2 μg/ml), HC gp-39(263–275) or APL (10, 2 and 0.4 μg/ml). At 96 h, 50 μl of culture medium was harvested for analysis of antigen-specific cytokine production using Luminex technology (mouse cytokine 18 Plex Panel, catalogue no. 171-F11181, Biorad, Bio-Rad Laboratories, Hercules, CA, USA). In addition, cultures were labelled with tritiated thymidine (for 18 h) and antigen-specific proliferation was determined. We state that all animal experimentation received ethics approval and animals were treated according to the recognized guidelines.

[5] = test system: popliteal lymph node cells from HC gp-39(263–275)-immunized huCD4, HLA-DR4 transgenic mice; assay: Antigen-specific cytokine production of popliteal lymph node cells from WT peptide-immunized mice; type: cell-based, mouse; conditions: for IFNγ concentration / MIP1α concentration / RANTES concentration: 96 h supernatant, Luminex
Description: as §3

[6] = test system: popliteal lymph node cells from F265(Dip)-immunized HLA-DR4trg mice; assay: Antigen-specific proliferation of popliteal lymph node cells from F265(Dip)-immunized mice; type: cell-based, mouse; conditions: Figure 4b
Description: as §3

[7] = test system: popliteal lymph node cells from F265(Dip)-immunized HLA-DR4trg mice; assay: Antigen-specific cytokine production of popliteal lymph node cells from F265(Dip)-immunized mice; type: cell-based, mouse; conditions: Figure 4b
Description: as §3

[8] = test system: B1*0101; conditions: cited from earlier work
Description: (§4) Four TCR contact sites (Ala268, Ser269, Glu271 and Thr272) are important for polyclonal T cell activation. No information is available on important residues in the MHC α-chain, but for the β chain information on MHC restriction can be used (data not shown). The peptide does bind to HLA-DRB1*0402, B1*0405 and B1*0101 [7]. […] This leads to the view of the MHC-peptide complex in Figure 3b. Some of these MHC β-chain residues are th ...

[9] = test system: B1*0405; conditions: cited from earlier work
Description: as §4

[10] = target: HLA-DRB1*0402 (Homo sapiens, UniProt P01903+P01911, A100E/A169T/F76Y/K127E/L162R/M171V/N62H/P40V/Q125Y/Q99D/R42H/S133A/S149N/S66Y/V209L/W38E); conditions: cited from earlier work
Description: as §4

[11] = Figure 2a dose response, IL-2 ELISA after 48 h
[12] = Figure 4a, WT peptide-immunized HLA-DR4trg mice

IC50 ([1]; Figure 1, read-out: DRB1*0401 binding IC50): 10 nM
IC50 ([1]; Table 1, geometric mean of two experiments, read-out: HLA-DR binding IC50): 120 nM
Sequence: RSFTLASSETGVG [Compound 1, HC gp-39(263–275)]
T hybridoma (SI) 5G11 ([2]; Figure 1, IL-2 production, DRB1*0401 BLCL as APC, duplicate or triplicate, background 29,203 counts, ±30% of WT response = super/partial agonist): 29 SI
Peptide concentration for half maximal stimulation (IL-2), 5G11 [2, 11]: 2 µg/mL
Hybridoma response (SI) 5G11 ([2]; Table 1, DRB1*0401 BLCL as APC, background 8,147 counts, representative of at least three experiments): 13 SI
Hybridoma response (SI) 5G11 ([2]; Table 2, DRB1*0401 BLCL as APC, background 17,238 counts, SD not above 15%): 17 SI
Peptide concentration for half maximal stimulation (IL-2), 20H5 [3, 11]: 0.02 µg/mL
Hybridoma response (SI) 20H5 ([3]; Table 1, background 35,749 counts, representative of at least three experiments): 26 SI
Hybridoma response (SI) 20H5 ([3]; Table 2, background 290,666 counts, SD not above 15%): 5 SI
Prol (SI) ([4]; peptide 0.4 μg/ml): 3 SI
Prol (SI) ([4]; peptide 2 μg/ml): 6 SI
Prol (SI) ([4]; peptide 10 μg/ml): 8 SI
Ex vivo recall IFNγ production in words [5, 12]: significant levels
Ex vivo recall Mip1α production in words [5, 12]: significant levels
Ex vivo recall RANTES production in words [5, 12]: significant levels
IFNγ concentration ([5]; peptide 0.4 μg/ml): <5 pg/mL
MIP1α concentration ([5]; peptide 0.4 μg/ml): 25 pg/mL
RANTES concentration ([5]; peptide 0.4 μg/ml): 6 pg/mL
IFNγ concentration ([5]; peptide 2 μg/ml): 6 pg/mL
MIP1α concentration ([5]; peptide 2 μg/ml): 128 pg/mL
RANTES concentration ([5]; peptide 2 μg/ml): 13 pg/mL
IFNγ concentration ([5]; peptide 10 μg/ml): 16 pg/mL
MIP1α concentration ([5]; peptide 10 μg/ml): 252 pg/mL
RANTES concentration ([5]; peptide 10 μg/ml): 23 pg/mL
In vitro recall proliferative response in words [6]: somewhat less
In vitro recall IFNγ production in words [7]: failed to induce significant levels
In vitro recall Mip1α production in words [7]: failed to induce significant levels
In vitro recall RANTES production in words [7]: failed to induce significant levels
Binding to HLA-DRB1*0101 in words [8]: does bind
Binding to HLA-DRB1*0405 in words [9]: does bind
Binding to HLA-DRB1*0402 in words [10]: does bind
